{
  "source": "patent US7655633B2",
  "about": "“Nitrogen-containing heterocyclic derivatives, medicinal compositions containing the same and medicinal use thereof” (Kissei Pharmaceutical Co., Ltd., priority 2002, dated 2010)",
  "target": "T1, human SGLT2 (Homo sapiens, UniProt P31639)",
  "T1 construct": "expressed in transfected cells",
  "T1 sequence (P31639 1-672)": "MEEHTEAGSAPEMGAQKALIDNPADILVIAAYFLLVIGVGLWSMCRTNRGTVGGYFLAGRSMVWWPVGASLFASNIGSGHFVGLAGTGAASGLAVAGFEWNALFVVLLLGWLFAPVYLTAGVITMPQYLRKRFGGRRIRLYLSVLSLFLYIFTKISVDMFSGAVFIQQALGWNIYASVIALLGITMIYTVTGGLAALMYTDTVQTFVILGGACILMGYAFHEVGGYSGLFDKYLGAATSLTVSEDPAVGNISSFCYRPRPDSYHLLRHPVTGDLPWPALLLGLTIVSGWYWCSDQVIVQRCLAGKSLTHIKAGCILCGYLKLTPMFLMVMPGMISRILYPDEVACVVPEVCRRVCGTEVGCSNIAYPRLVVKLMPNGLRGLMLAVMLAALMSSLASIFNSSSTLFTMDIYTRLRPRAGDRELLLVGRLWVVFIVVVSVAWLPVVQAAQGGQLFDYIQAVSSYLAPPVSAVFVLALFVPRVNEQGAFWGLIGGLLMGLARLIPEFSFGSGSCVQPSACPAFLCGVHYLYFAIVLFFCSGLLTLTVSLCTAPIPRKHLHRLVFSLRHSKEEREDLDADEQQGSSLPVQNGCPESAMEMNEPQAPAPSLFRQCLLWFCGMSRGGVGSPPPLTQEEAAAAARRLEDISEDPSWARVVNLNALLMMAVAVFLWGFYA",
  "assay": "Assay for inhibitory effects on human SGLT2 activity (uptake of methyl-α-D-glucopyranoside in CS2-5E cells)",
  "format": "cell-based",
  "details": "inhibition of 14C-labeled α-MG (1 mM) uptake, CHO-K1 cells stably expressing human SGLT2 (CS2-5E), 37° C., 1 hour",
  "description": "Assay for Inhibitory Effects on Human SGLT2 Activity\n1) Cloning and Construction of the Vector Expressing Human SGLT2\nThe cDNA library was prepared for PCR amplification by reverse transcription from total RNA deprived from human kidney (Ori gene) using oligo-dT as a primer. Using this cDNA library as a template, the base sequence coding 2 to 2039 bp of human SGLT2 (ACCESSION: M95549, M95299), which was reported by R. G. Wells et al., was amplified by PCR method and inserted into the multi-cloning site of pcDNA3.1(−) (Invitrogen). The DNA sequence inserted was perfectly matched to the previously reported sequence.\n2) Establishment of Cell Line Stably Expressing Human SGLT2\nThe expression vector of human SGLT2 was digested by Sca I into a linear DNA. The linear DNA was transfected into CHO-K1 cells by means of lipofection (Effectene Transfection Reagent: QIAGEN). Neomycin resistant cell lines were obtained by culture in the medium containing 1 mg/mL of G418 (LIFE TECHNOLOGIES), and then the activity against the uptake of methyl-α-D-gluco-pyranoside was measured by the method described below. […] Afterward, CS2-5E cells were cultured in the presence of G418 at 200 μg/mL. […]\nCS2-5E cells were seeded into a 96-well culture plate at a density of 3×10^4 cells/well and cultured for 2 days, and were used in the uptake assay. […] Radioactivity was measured by means of scintillation counter (Packard). […]",
  "data": [
    {"smiles": "Cc1cc(C)c(Cc2ccc(C)c(F)c2)c(O[C@@H]2O[C@H](CO)[C@@H](O)[C@H](O)[C@H]2O)n1", "note": "[Example 1, 2-(β-D-Glucopyranosyloxy)-3-(3-fluoro-4-methylbenzyl)-4,6-dimethylpyridine]", "values": [
      {"measurement": "IC50", "value": 3, "unit": "nM"}
    ]}
  ]
}
